Results reported in patent publication US10280179B2, “Spiroquinoxaline derivatives as inhibitors of non-apoptotic regulated cell-death” (Helmholtz Zentrum Munchen—Deutches Forschungszentrum Fur …, priority 2013, dated 2019).
Read-outs that look alike come from different tables or passages of the source.

What was measured:
[1] = system: human neuroblastoma cell line SH-SY5Y; assay: Inhibition of BSO-induced non-apoptotic cell death (Example B.1); assay type: cell-based; conditions: SH-SY5Y cells, 72 hours
Excerpt: Inhibition of BSO-Induced Non-Apoptotic Cell Death by Compounds Disclosed Herein
L-Buthionine sulfoximine (BSO) is a well-known glutathione (GSH) depletory, which inhibits gamma-glutamyl-cysteine-synthetase, the enzyme catalyzing the rate-limiting step in GSH biosynthesis. The human neuroblastoma cell line SH-SY5Y is sensitive to BSO-induced intracellular glutathione depletion, which causes high levels of reactive oxygen species (ROS) and cellular stress mimicking cellular conditions following ischemia (cf., e.g., Yamada et al., Neurochem. Int. 59:1003-9 (2011)).
Compounds disclosed herein were evaluated for their ability to promote cell survival upon administration of a lethal dose of BSO to cell-culture medium. Briefly, SH-SY5Y cells (ATCC® CRL-2266™) were propagated in DMEM supplemented with 10% FBS/1% Penicillin-Streptomycin, and then seeded onto 96-well plates at a concentration of 750 cells/well in 100 μL of media, to which BSO (Sigma Aldrich) was added (to a final concentration of 50 μM) together with increasing concentrations of the compound to be tested, and the plates incubated at 37° C./5% CO2 for 72 hours. Compound dilutions (0.5 pM to 100 μM) were prepared from 10 mM stocks dissolved in DMSO and diluted in media. Cells treated with BSO alone were used as negative control and alpha-Tocopherol (Sigma Aldrich) was used as positive control. Compound concentrations were tested in triplicate. After incubation, cell survival was detected using the live/dead cell assay AquaBluer™ (MultiTarget Pharmaceuticals) and quantified using a fluorescence plate reader (excitation filter: 530-560 nm/emission filter: 590 nm) (SpectraMax M4; Molecular Devices). Fluorescence data so obtained was normalised to the percentage of surviving cells and IC50 values calculated using the GraphPad Prism (GraphPad Software, Inc) software package.

[2] = system: mouse hippocampal cell line (Ht22); assay: Inhibition of glutamate-induced non-apoptotic cell death (Example B.2); assay type: cell-based; conditions: HT-22, Ht22 cells
Outline: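 Protection from lethal glutamate (5 mM final) measured in mouse hippocampal Ht22 cells co-treated at seeding with compound from 0.5 pM to 100 μM, in triplicate. Survival read after 72 h at 37 °C/5% CO2, against glutamate-only and alpha-tocopherol controls.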

SH-SY5Y cells = assay: TNF-alpha-induced apoptosis, specificity for non-apoptotic cell death (Example B.3); assay type: cell-based, human; conditions: compound 1 μM, TNF-alpha 10 ng/mL, FIG. 1
Description: SH-SY5Y cells were propagated and seeded in 96-well plates, together with compound N-1, N-2, N-10 of Table 1-N (FIG. 1(a)), compound O/S-6 or O/S-3 of Table 1-O/S (FIG. 1(b)), or compound C-12, C-91, or C-205 of Table 1-C (FIG. 1(c)) (each 1 μM) and TNF-alpha was added (final concentration: 10 ng/mL) to induce apoptosis. The apoptosis and pan-caspase inhibitor z-vad (final concentration: 50 μM) and the necroptosis inhibitor Necrostatin-1 (Nec-1; final concentration: 5 μM) were used for comparison. Control wells were established with vehicle only (DMSO), with and without treatment with TNF-alpha to induce apoptosis. Cells were incubated, and cell survival was detected and quantified. Percentage cell survival after TNF-alpha-induced apoptosis is shown (error bars indicate standard deviation (SD)).
Briefly, SH-SY5Y cells were propagated and seeded in 96-well plates, together with the compound to be tested (1 μM), generally as described in Example B.1, except they were seeded at 1,000 cell/well and instead of BSO, TNF-alpha (Invitrogen) was added to a final concentration of 10 ng/mL to induce apoptosis. The apoptosis and pan-caspase inhibitor Z-VAD-fmk (Enzo Life Science; final concentration 50 μM) and the necroptosis inhibitor Necrostatin-1 (Nec-1; Enzo Life Science; final concentration 5 μM) were used for comparison. Control wells were established with vehicle only (DMSO), with and without treatment with TNF-alpha to induce apoptosis. Cells were incubated, and cell survival was detected and quantified as described in Example B.1.

Pfa1 cells = assay: Inhibition of non-apoptotic cell death after tamoxifen-induced GPx4 knockout in a recombinant cell line (Example B.4); assay type: cell-based; conditions: Mus musculus, read-out: Pfa1/TAM IC50
Outline: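 Immortalised murine fibroblasts with tamoxifen-inducible CreERT2 for ablation of both GPx4 copies (Pfa1 cells) received tamoxifen on day 0 together with test compound. Cell survival was measured by AlamarBlue after 72 hours.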

[3] = Cellular toxicity, same assay as Example B.4 without TAM (Example B.5); assay type: cell-based; conditions: mouse; Pfa1 cells without TAM; read-out: TC50 (the source's name)
Excerpt: Cellular Toxicity of Compounds of the Invention
An estimate of the toxicity for compounds of the invention was obtained by using the same assay as described in Example B.4, but without the addition of TAM. […] Such TC50 values obtained for certain compounds disclosed herein, together with an approximate therapeutic window (estimated by dividing each TC50 by the corresponding IC50 determined from example B.4) are shown in Table 3.

[4] = 50 μM BSO, read-out: SH-SY5Y/BSO IC50
[5] = BSO 50 μM, cell survival (AquaBluer), read-out: SH-SY5Y/BSO (Example B.1) IC50
[6] = glutamate 5 mM, 72 hours, cell survival, read-out: Ht22/GLU (Example B.2) IC50
[7] = glutamate-induced cell death, read-out: Ht22/GLU

Compound	IC50 [1, 4] [nM]	IC50 [1, 5] [nM]	IC50 [2, 6] [nM]	IC50 [2, 7] [nM]	Percentage cell survival after TNF-alpha-induced apoptosis (SH-SY5Y cells)	IC50 (Pfa1 cells) [nM]	CC50 [3] [nM]
Clc1ccccc1CNC1=Nc2ccccc2NC12CCNCC2 [N-1]	< 20	6.51	10.3	< 200	Non-inhibition of apoptotic cell-death	< 50	10000 to 20000
Clc1ccc(CNC2=Nc3ccccc3NC23CCOCC3)cc1 [O/S-3]	< 500	~100	~100	< 100	Non-inhibition of apoptotic cell-death	< 500	20000 to 50000
Clc1ccccc1CNC1=Nc2ccccc2NC12CCCCCC2 [C-205]	< 100	46.7	~100	< 500	Non-inhibition of apoptotic cell-death	< 200	20000 to 50000
CC1CCC2(CC1)Nc1ccccc1N=C2NCc1ccccc1Cl (stereo not shown) [C-91]	< 20	9.33	~50	< 200	Non-inhibition of apoptotic cell-death	< 200	10000 to 20000
Cc1cc2c(cc1C)NC1(CCNCC1)C(NCc1cccc(C(F)(F)F)c1)=N2 [N-251]	< 10	–	–	< 50	–	< 100	500 to 1000
Fc1cccc(F)c1CNC1=Nc2ccccc2NC12CCCCCC2 [C-266]	< 100	–	–	< 500	–	< 500	10000 to 20000
Clc1cccc(CNC2=Nc3cc4c(cc3NC23CCNCC3)OCCO4)c1 [N-219]	< 500	–	–	< 1000	–	< 1000	20000 to 50000
Clc1cccc(CNC2=Nc3ccccc3NC23CCCCCC3)c1 [C-216]	< 50	–	–	< 500	–	< 100	10000 to 20000
c1ccc(CNC2=Nc3ccccc3NC23CCSCC3)cc1 [O/S-338]	< 500	–	–	< 5000	–	< 1000	50000 to 100000
Clc1cccc(CNC2=Nc3cc(Cl)c(Cl)cc3NC23CCOCC3)c1 [O/S-94]	< 50	–	–	< 500	–	< 50	10000 to 20000
Cc1cc2c(cc1C)NC1(CCOCC1)C(NCc1ccccc1)=N2 [O/S-340]	< 200	–	–	< 500	–	< 500	20000 to 50000
CC(NC1=Nc2ccccc2NC12CCSCC2)c1ccccc1 (stereo not shown) [O/S-367]	< 200	–	–	< 500	–	< 1000	20000 to 50000
Clc1cc2c(cc1Cl)NC1(CCOCC1)C(NCc1ccccc1)=N2 [O/S-339]	< 20	–	–	< 200	–	< 50	20000 to 50000
FC(F)(F)c1cccc(CNC2=Nc3ccccc3NC23CCCCCC3)c1 [C-261]	< 50	–	–	< 500	–	< 500	10000 to 20000
CC1CC2(CCN1)Nc1ccccc1N=C2NCc1cccc(Cl)c1 (stereo not shown) [N-239]	< 50	–	–	< 200	–	< 1000	5000 to 10000
CC1(C)CCC2(CC1)Nc1ccccc1N=C2NCc1ccccc1 [C-253]	< 100	–	–	< 1000	–	< 1000	10000 to 20000
Clc1ccc(CNC2=Nc3cc(Cl)c(Cl)cc3NC23CCNCC3)cc1Cl [N-258]	< 20	–	–	< 50	–	< 100	100 to 200
Cc1cc2c(cc1C)NC1(CCCCCC1)C(NCc1cccc(Cl)c1)=N2 [C-255]	< 50	–	–	< 200	–	< 200	5000 to 10000
FC(F)(F)c1cccc(CNC2=Nc3cc(Cl)c(Cl)cc3NC23CCNCC3)c1 [N-260]	< 20	–	–	< 50	–	< 20	500 to 1000
FC(F)(F)c1cccc(CNC2=Nc3ccccc3NC23CCNCC3)c1 [N-23]	< 20	–	–	< 50	–	< 50	20000 to 50000
Cc1cccc2c1NC1(CCCCC1)C(NCc1ccccc1)=N2 [C-263]	< 50	–	–	< 500	–	< 500	10000 to 20000
Cc1ccc(CNC2=Nc3ccccc3NC23CCCCC3)cc1 [C-12]	< 500	468	298	< 500	–	< 500	50000 to 100000
CC1CCC2(CC1)Nc1ccccc1N=C2NCc1ccccc1 (stereo not shown) [C-252]	< 200	–	–	< 1000	–	< 1000	10000 to 20000
Clc1cccc(CNC2=Nc3ccccc3NC23CCCCC3)c1 [C-2]	< 100	–	–	< 500	–	< 100	10000 to 20000
c1ccc(CNC2=Nc3cc4c(cc3NC23CCCCC3)OCCO4)cc1 [C-223]	< 500	–	–	< 1000	–	< 200	20000 to 50000
CN1CCC2(CC1)Nc1ccccc1N=C2NCc1cccc(Cl)c1 [N-90]	< 50	–	–	< 200	–	< 20	10000 to 20000
